Read-outs that look alike come from different tables or passages of the source.
Experiments:
[1] = molecular target: T1, amyloid β protein in the brain section of an Alzheimer disease patient (Homo sapiens, UniProt P05067); assay: Staining test on a brain section of an Alzheimer disease patient: amyloid β protein; assay type: binding; settings: for Binding to (staining of) amyloid β protein in the brain section of an Alzheimer disease patient: 100 μM solution in 50% ethanol, 10 minutes, paraffin brain section; for Specificity to amyloid β: statement in the description of formulae (II) to (VI)
T1 construct: from tissue; host or cells: paraffin-embedded temporal lobe and hippocampus of Alzheimer disease patients
T1 sequence (P05067 672-713 limits assumed): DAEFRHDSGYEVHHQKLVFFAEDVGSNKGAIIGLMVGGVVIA
Text: (1) Brain specimens at the temporal lobe and the hippocampus of patients to which a definitive diagnosis of Alzheimer disease had been given, and those of normal senile persons were used. The specimens were given by our coworker, Fukushimura Hospital, Longevity Medicine Institute, and we were given their consent of use of the specimens for our study purpose by the bereaved of the patients (Fukushimura Hospital Ethical Review Board Approval No. 20).
(2) The paraffin-embedded brain tissue was cut Into slices having a thickness of 6 μm or 8 μm, and extended and dried on a slide. The paraffin brain section was steeped for paraffin removal in xylene twice for 10 minutes, 100% ethanol twice for 5 minutes, 90% ethanol for 5 minutes and running water for 10 minutes in that order.
(3) For pretreatment prior to the staining treatment with a compound of the invention, the sections were steeped for autofluorescence removal with lipofuscin. First, the paraffin-removed sections were dipped in 0.25% KMnO4 solution for 20 minutes. These were washed with PBS, twice for 2 minutes, then dipped in 0.1% K2S2O5/oxalic acid solution for about 5 seconds, and then further washed with PBS, three times for 2 minutes.
(4) About 150 μl of a 100 μM solution of a compound of the invention dissolved in 50% ethanol was dropwise applied to the section and reacted for 10 minutes. After dipped five times in tap water, the section was entrapped with Fluor Save Reagent (Calbiochem), and analyzed through microscopy with a fluorescence microscope (Nikon, Eclipse 80i). The images were taken with a digital camera (Nikon Dxm 1200F or Photometrics' Cool SNAP ES).
(1) After paraffin removal, the sections were washed in distilled water, twice for 2 minutes. Then, using ImmunoPen, the tissue was marked with a surrounding line; about 150 μl of formic acid was dropwise applied to the section and statically left at room temperature for 5 minutes. The section was washed with tap water for 5 minutes, then dipped in cold PBS-Tween 20 for 2 minutes, and thereafter about 150 μl of 0.05% trypsin solution was dropwise applied to it and reacted at 37° C. for 15 minutes.
(2) In an ice bath, this was washed with cold PBS-Tween 20, twice for 5 minutes, and then 2 drops of blocking serum were applied to it and reacted at 37° C. for 30 minutes. Excess water was removed, and then about 150 μl of a specific antibody to amyloid β protein, 6F/3D (by DAKO, 1/50 dilution) was dropwise applied to it, and reacted at 37° C. for 1 hour.
(3) Further, this was washed with cold PBS-Tween 20, 5 times for 2 minutes, and then 2 drops of an anti-mouse IgG (H+L), goat, biotin-binding solution were applied to it and reacted at 37° C. for 1 hour. Then, this was washed with cold PBS-Tween 20, three times for 2 minutes, and 2 drops of an ABC solution (streptoavidin-biotin-peroxidase composite solution) were applied to it, and left statically as such for 30 minutes. Again this was washed with cold PBS-Tween 20, three times for 2 minutes, and then about 150 μl of a DAB solution (10 mg of DAB was dissolved in 20 ml of 0.05 mol/liter tris-HCl buffer, and just before use, 100 μl of 3% hydrogen peroxide water was added to it) was dropwise applied to it for sufficiently staining it. Then, this was washed with distilled water for 1 minute to stop the reaction, then entrapped and observed through microscopy.

Acute Toxicity Test = assay type: in vivo; settings: Crj:CD1 male mice, tail vein, observed for 7 days
Procedure: The compounds of the invention were tested for their acute toxicity through intravenous administration thereof to mice. Four Crj:CD1 male mice formed one test group, and some test groups of those mice were used (the mean body weight of the mice of each group was from 31 to 32 g). A test compound was dissolved in a mixture of 1 N HCl, polyethylene glycol-400 and distilled water, or dissolved in DMSO, and then diluted with distilled water. This was administered to each mouse via its tail vein.

Amyloid β protein 1-40 = molecular target: T2, Amyloid β protein 1-40 (Homo sapiens, UniProt P05067); assay: Fluorescence Congo Red Method; assay type: binding; settings: 1 h, compound 10 μM, amyloid β protein 5 μM
T2 construct: Amyloid β protein 1-40 (bought from Peptide Laboratory); purchased Peptide Laboratory
T2 sequence (P05067 672-711): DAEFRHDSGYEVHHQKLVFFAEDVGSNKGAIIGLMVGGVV
Procedure: Next described is a screening method for the compounds of the invention. Some of the compounds of the invention could not be screened according to a Thioflavin T method, since their fluorescence wavelength overlaps with that of Thioflavin T. For such compounds, the following novel screening method was introduced. (1) Amyloid β protein 1-40 (bought from Peptide Laboratory) was dissolved in a phosphate buffer (pH 7.4) and left at 37° C. for 4 days. (2) 50 μl of Congo red dissolved in the buffer was applied to a 96-well microplate (final concentration, 0.1, 0.3, 1 μM). (3) 100 μl of amyloid β protein was added to it (final concentration 5 μM), and left as such for 30 minutes. (4) 100 μl of a test compound dissolved in the buffer was added to it (final concentration, 10 μM, and left as such for 60 minutes. (5) Using a fluorescence microplate reader (Spectra Max 190 by Molecular Device), the sample was analyzed at the optimum exciting wavelength and the test wavelength that had been previously determined. (6) The fluorescence intensity in the presence of the test compound, amyloid β protein and Congo red is represented by A; that in the presence of the test compound and Congo red is by B; that in the presence of the test compound and amyloid β protein is by C; and that in the presence of only the test compound is by D. The β structure recognition of the test compound is computed according to the following formula: β structure recognition (%) of test compound={(A−B)/(C−D)}×100. (7) It may be said that the test compound having a higher β structure recognition percentage may have higher binding specificity to amyloid β protein.

[2] = Congo red 0.1 μM, read-out: Binding Percentage of Compound in the presence of 0.1 μM CR
[3] = Congo red 0.3 μM, read-out: Binding Percentage of Compound in the presence of 0.3 μM CR
[4] = Congo red 1 μM, read-out: Binding Percentage of Compound in the presence of 1 μM CR

Row | Binding to (staining of) amyloid β protein in the brain section of an Alzheimer disease patient [1] | Specificity to amyloid β [1] | SMILES | Maximum Permissible Dose (mg/kg, intravenous administration) (Acute Toxicity Test) | activity at 10 µM (Amyloid β protein 1-40; [2]) | activity at 10 µM (Amyloid β protein 1-40; [3]) | activity at 10 µM (Amyloid β protein 1-40; [4])
1 | bound to the amyloid β protein | high specificity to amyloid β | CN(C)c1ccc(/C=C/C23NC(=O)CCN2c2ccc(Br)cc2C3(C)C)cc1 (centres unmarked) [THK-558, 8-bromo-10a-[2-(4-dimethyl-amino-phenyl)-vinyl]-10,10-dimethyl 1-3,4,10,10a-tetrahydro-1H-pyrimido[1,2-a]indol-2-one] | – | – | – | –
2 | bound to the amyloid β protein | high specificity to amyloid β | CN(C)c1ccc(-c2nnc(-c3sc4cc(Cl)ccc4c3Cl)o2)cc1 [THK-262, [4-[5-(3,6-dichloro-benzo[b]thiophen-2-yl)-[1,3,4]oxadiazol-2-yl]-phenyl]-dimethylamine] | – | – | – | –
3 | bound to the amyloid β protein | high specificity to amyloid β | CN(C)c1ccc(/C=C\C=C2C(=O)c3ccccc3C2=O)cc1 [THK-248, 2-[3-(4-dimethylamino-phenyl)-allylidene]-indane-1,3-dione] | – | – | – | –
4 | bound to the amyloid β protein | high specificity to amyloid β | Cc1ccc2c(c1)C(C)(C)C1(/C=C/C=C/c3ccc(N(C)C)cc3)NC(=O)CCN21 (centres unmarked) [THK-565] | – | – | – | –
5 | bound to the amyloid β protein | high specificity to amyloid β | O=C1Nc2ccc(Cl)cc2/C1=C/c1ccc(N2CCOCC2)cc1 [THK-276, 5-chloro-3-(4-morpholin-4-yl-benzylidene)-1,3-dihydroindol-2-one] | – | – | – | –
6 | bound to the amyloid β protein | high specificity to amyloid β | CN(C)c1ccc(/C=C/C23NC(=O)CN2c2ccc(Br)cc2C3(C)C)cc1 (centres unmarked) [THK-556, 7-bromo-9a-[2-(4-dimethyl-amino-phenyl)-vinyl]-9,9-dimethyl-9,9a-dihydro-1H-imidazo[1,2-a]indol-2-one] | – | – | – | –

The next lines start with the compound.

Row | SMILES | Binding to (staining of) amyloid β protein in the brain section of an Alzheimer disease patient [1] | Specificity to amyloid β [1] | Maximum Permissible Dose (mg/kg, intravenous administration) (Acute Toxicity Test) | activity at 10 µM (Amyloid β protein 1-40; [2]) | activity at 10 µM (Amyloid β protein 1-40; [3]) | activity at 10 µM (Amyloid β protein 1-40; [4])
7 | c1csc(-c2nnc(-c3ccc(N4CCOCC4)cc3)o2)c1 [THK-383, 4-[4-(5-thiophen-2-yl-[1,3,4]oxadiazol-2-yl)-phenyl]-morpholine] | bound to the amyloid β protein | high specificity to amyloid β | – | – | – | –
8 | OCC(CF)Oc1ccc2nc(/C=C/c3cnc(N4CCCOCC4)s3)oc2c1 (centres unmarked) [THK-766, (E)-6-[(1-fluoromethyl-2-hydroxy)ethoxy]-2-[2-[2-homomorpholinothiazol-5-yl)ethenyl]benzoxazole] | white space arrow indicates amyloid β protein | – | ≧10 mg/kg | 61% | 21.5% | 11.2%
9 | OCC(CF)Oc1ccc2nc(/C=C/c3cnc(N4CCCOC4)s3)oc2c1 (centres unmarked) [THK-757, (E)-6-[(1-fluoromethyl-2-hydroxy)ethoxy]-2-[2-[2-([1,3]oxadinan-3-yl)-thiazol-5-yl]ethenyl] benzoxazole] | – | – | ≧10 mg/kg | 52.4% | 24.8% | 10.3%
10 | O=C1Nc2ccc(Cl)cc2/C1=C/c1ccc(N2CCOCC2)s1 [THK-308, 5-chloro-3-(5-morpholin-4-yl-thiophen-2-ylmethylene)-1,3-dihydroindol-2-one] | bound to the amyloid β protein | high specificity to amyloid β | – | – | – | –
11 | OCC(CF)Oc1ccc2nc(/C=C/c3cnc(N4CCCCCC4)s3)oc2c1 (centres unmarked) [THK-765, (E)-6-[(1-fluoromethyl-2-hydroxy)ethoxy]-2-[2-[2-(homopiperidin-1-yl)thiazol-5-yl]ethenyl]benzoxazole] | – | – | ≧10 mg/kg | 71.2% | 41.3% | 23%

Reference: patent US7910579B2, “Benzoxazole derivatives” (Tohoku University, priority 2006, dated 2011)
